Data on 8 compounds can be found in US10399985B2, “(Hetero)aryl imidazoles/pyrazoles for treatment of neurological disorders” (Hoffmann-La Roche Inc., priority 2014, dated 2019).

pIC50: −log10 of the molar value.

Sequence of human PDE10A (Q9Y233 other isoform, or with tags, fused parts or gaps): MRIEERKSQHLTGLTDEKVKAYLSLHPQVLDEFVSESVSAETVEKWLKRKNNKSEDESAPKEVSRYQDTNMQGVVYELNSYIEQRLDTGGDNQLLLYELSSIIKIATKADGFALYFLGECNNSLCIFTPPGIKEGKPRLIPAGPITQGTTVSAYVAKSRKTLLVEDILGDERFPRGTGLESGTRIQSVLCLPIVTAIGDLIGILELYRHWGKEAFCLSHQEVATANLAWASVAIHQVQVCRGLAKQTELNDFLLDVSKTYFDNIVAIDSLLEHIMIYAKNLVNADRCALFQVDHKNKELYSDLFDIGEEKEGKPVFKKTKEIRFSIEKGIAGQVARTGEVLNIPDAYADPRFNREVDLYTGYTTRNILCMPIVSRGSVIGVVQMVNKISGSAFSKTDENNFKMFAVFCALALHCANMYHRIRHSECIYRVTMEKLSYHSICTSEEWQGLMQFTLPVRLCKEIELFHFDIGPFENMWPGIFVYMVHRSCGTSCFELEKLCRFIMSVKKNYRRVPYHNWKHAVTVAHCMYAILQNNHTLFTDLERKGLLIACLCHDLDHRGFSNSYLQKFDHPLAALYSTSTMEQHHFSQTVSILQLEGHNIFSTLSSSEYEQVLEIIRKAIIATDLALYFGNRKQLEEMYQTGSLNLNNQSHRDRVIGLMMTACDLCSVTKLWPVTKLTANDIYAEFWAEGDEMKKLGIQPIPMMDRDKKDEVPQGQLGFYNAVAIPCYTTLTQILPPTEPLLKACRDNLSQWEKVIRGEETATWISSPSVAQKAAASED

The subject of one assay is rats.
Test: not given
The following applies: sub-chronic treatment with PCP; cited from earlier work.
As for `COc1ccc(Cc2nccc3cc(OC)c(OC)cc23)cc1OC` [papaverine, Papaverine], the “deficits in the extra-dimensional shift learning” value is on record as “attenuate the deficits”.

A further assay concerns the target human PDE10A (Homo sapiens (Human), UniProt Q9Y233). Kind of assay: human PDE10A full length Scintillation Proximity Assay (SPA). It counts as biochemical. The settings on record: 50 nM cGMP and 50 nM [3H]-cGMP, 20 minutes at room temperature. As for the experimental part: The following test was carried out in order to determine the activity of the compounds of the present invention. PDE10 activity of the compounds of the present invention was determined using a Scintillation Proximity Assay (SPA)-based method similar to the one previously described (Fawcett, L. et al., ProcNatl Acad Sci USA (2000) 97(7):3702-3707).
The human PDE10A full length assay was performed in 96-well micro titer plates. The reaction mixture of 50 μl contained 20 mM HEPES pH=7.5/10 mM MgCl2/0.05 mg/ml BSA (Sigma cat. # A-7906), 50 nM cGMP (Sigma, cat. # G6129) and 50 nM [3H]-cGMP (GE Healthcare, cat. # TRK392 S. A. 13.2 Ci/mmol), 3.75 ng/well PDE10A enzyme (Enzo Life Science, Lausen, Switzerland cat # SE-534) with or without a specific test compound. A range of concentrations of the potential inhibitor was used to generate data for calculating the concentration of inhibitor resulting in 50% of the effect (e.g. IC50, the concentration of the competitor inhibiting PDE10A activity by 50%). Non-specific activity was tested without the enzyme. The reaction was initiated by the addition of the substrate solution (cGMP and [3H]-cGMP) and allowed to progress for 20 minutes at room temperature. The reaction was terminated by adding 25 μl of YSi-SPA scintillation beads (GE Healthcare, cat. # RPNQ0150) in 18 mM zinc sulphate solution (stop reagent). After 1 h under shaking, the plate was centrifuged one minute at 170 g to allow beads to settle. Afterwards, radioactive counts were measured on a Perkin Elmer TopCount Scintillation plate reader.
On the technique in general: SPA uses beads or plates that emit light when radiolabelled molecules are held near them.
With `Cc1cc(CCc2nc(-c3ccccn3)cn2C)nn2c(C)c(C(F)(F)F)nc12` [Example 30, 3,8-Dimethyl-6-(2-(1-methyl-4-(pyridin-2-yl)-1H-imidazol-2-yl)ethyl)-2-(trifluoromethyl)imidazo[1,2-b]pyridazine], the pIC50 was 8.43.
In the case of `Cc1nn2ccc(CCc3nc(-c4ccccc4)cn3C)nc2c1C` [Example 16, 2,3-Dimethyl-5-(2-(1-methyl-4-phenyl-1H-imidazol-2-yl)ethyl)pyrazolo[1,5-a]pyrimidine], the negative logarithm of the IC50 (pIC50) was 8.62.
`Cc1nc2ccc(OCc3nc(-c4ccccc4)cn3C)nn2c1C` [Example 32, 2,3-Dimethyl-6-((1-methyl-4-phenyl-1H-imidazol-2-yl)methoxy)imidazo[1,2-b]pyridazine] gave a pIC50 of 8.14.
With `Cn1cc(-c2ccccc2)nc1COc1ccc2nc(C3CC3)c(CO)n2n1` [Example 43, (2-Cyclopropyl-6-((1-methyl-4-phenyl-1H-imidazol-2-yl)methoxy)imidazo[1,2-b]pyridazin-3-yl)methanol], the pIC50 was 6.78.
With `Cc1nc2ccc(CCc3nc(-c4ccnnc4)cn3C)nn2c1C` [Example 28, 2,3-Dimethyl-6-(2-(1-methyl-4-(pyridazin-4-yl)-1H-imidazol-2-yl)ethyl)imidazo[1,2-b]pyridazine], the negative logarithm of the IC50 (pIC50) is 7.09.
On to `Cc1nn2ccc(C#Cc3nc(-c4ccccc4)cn3C)nc2c1C` [Example 4, 2,3-Dimethyl-5-((1-methyl-4-phenyl-1H-imidazol-2-yl)ethynyl)pyrazolo[1,5-a]pyrimidine], for which the negative-log IC50 (pIC50) was 8.82.
For `Cn1cc(-c2ccccc2)nc1CCc1ccc2nc(C(F)(F)F)cn2n1` [Example 20, 6-(2-(1-Methyl-4-phenyl-1H-imidazol-2-yl)ethyl)-2-(trifluoromethyl)imidazo[1,2-b]pyridazine], the negative-log IC50 (pIC50) was 7.08.

As usually defined, the pIC50 is the negative decadic logarithm of the IC50, by convention in mol/L. Read a low pIC50 as a high IC50.
